Results on three molecules are retold here after publication PMC9866367 (Journal of medicinal chemistry, 2022).

Series [1] has as its system 46 other relevant drug targets such as GPCRs, ion channels, and nuclear receptors. Briefly: Eurofins safety panel. The conditions noted are these: Table S3.
Series [2] is described as follows: Cytotoxicity. The class given is cell-based.
Series [3] can be described thus: In vivo pharmacokinetic analysis in mice. Details: species or system male CD-1 mice.
The conditions of series [4]: 50 mg/kg IP, male mice, 1 h post-dosing; cited from earlier work.
Series [5] can be described thus: GSH. In kind it is in vitro ADME. Conditions: 5 μM compound, 5 mM GSH, up to 2 h.
Series [6] relates to panel of 322 kinases. Briefly: Kinase panel. Conditions: Table S2. The class given is biochemical.
Series [7] deals with T1, recombinant purified His-tagged sACt protein (Homo sapiens, UniProt Q96PN6).
T1 sequence (Q96PN6 1-469 limits assumed): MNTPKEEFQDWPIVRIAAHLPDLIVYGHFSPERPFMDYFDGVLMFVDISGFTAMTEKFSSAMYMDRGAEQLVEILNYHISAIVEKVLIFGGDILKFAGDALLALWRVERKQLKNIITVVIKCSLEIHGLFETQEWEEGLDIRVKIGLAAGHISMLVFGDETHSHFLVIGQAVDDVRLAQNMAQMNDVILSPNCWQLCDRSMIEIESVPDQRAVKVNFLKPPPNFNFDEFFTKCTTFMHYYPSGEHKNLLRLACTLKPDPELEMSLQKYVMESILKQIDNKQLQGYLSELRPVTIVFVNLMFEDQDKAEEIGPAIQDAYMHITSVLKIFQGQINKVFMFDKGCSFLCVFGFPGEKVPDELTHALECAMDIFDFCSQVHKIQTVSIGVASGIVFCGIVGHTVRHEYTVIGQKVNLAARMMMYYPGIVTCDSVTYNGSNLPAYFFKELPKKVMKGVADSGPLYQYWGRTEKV
Briefly: Binding kinetics via surface plasmon resonance. Conditions: read-out: SPR Residence Time.

For series [8], the target named is T2, purified human sAC protein (Homo sapiens, UniProt Q96PN6).
T2 sequence (Q96PN6 1-469): T1 sequence (Q96PN6 1-469 limits assumed)
In words: In vitro cyclase activity assay. The class given is biochemical.

[9] abbreviates: male, CD-1, mouse, plasma, iv, 2 mg/kg.

Regarding `Nc1nc(Cl)cc(-c2nn(C(F)F)cc2Cc2ccccc2OCCN2CCOC[C@H]2CO)n1` [Compound 33, [(3R)-4-[2-[2-[[3-(2-Amino-6-chloro-pyrimidin-4-yl)-1-(difluoromethyl)pyrazol-4-yl]methyl]phenoxy]ethyl]morpholin-3-yl]methanol], the “activity against 46 other drug targets in Eurofins safety panel” value in series [1] is “did not show appreciable activity”. Besides, in series [2], the cytotoxicity is more than 20 µM. The cytotoxicity in words result in series [2] (at 20 μM) was “no cytotoxicity”. In addition, in series [3] (50 mg/kg PO, CD-1 mice, out to 4 h), the “unbound plasma exposure over cellular IC50 ([…])” value is reported as ~ 10 fold. The AUC(0-t) in series [3] (setting [9]) came out at 780 ± 110 µM·h; in series [3] (male, CD-1, mouse, plasma, po, 10 mg/kg), 410 ± 57 µM·h; in series [3] (male, CD-1, mouse, plasma, po, 50 mg/kg), 5460 ± 1500 µM·h. This molecule also had a clearance in series [3] (setting [9]) of 94 ± 12 mL/min/kg. In series [4], the systemic level was 7.04 µM. The glutathione reactivity entry in series [5] (listed as TDI-11861) is recorded as “no evidence of adduct formation”; in series [5] (listed as TDI-11861 (33)), “low propensity at 5 μM”. The “activity against a panel of 322 kinases” value in series [6] is listed as “did not show appreciable activity”.

With `Nc1nc(Cl)cc(-c2nn(C(F)F)cc2Cc2ccccc2OCC(=O)N2CCOCC2)n1` [Compound 24], the residence time in series [7] was 8.07 min.

As for `CN(C)C(=O)c1ccccc1Cc1cn(C)nc1-c1cc(Cl)nc(N)n1` [Compound 14], the “biochemical activity in words” value in series [8] was “almost inactive”.
